Columns and labels:
[1] = Solubility (physicochemical properties); details: for Solubility in hydrated solvent: aqueous methanol or aqueous acetonitrile, percentage range given per compound; for Solubility in less-polar organic solvents: such as hexane or chloroform (Me1H1W4: chloroform and toluene)
Monostroma oxyspermum = assay: Minimum effective concentration (MEC) for thallus formation in Monostroma oxyspermum culture; format: cell-based
Description: One ml of modified ASP7 medium was added in the wells of the first row of 48-well microtitre plates (Iwaki, hereafter abbreviated as 48-MTP) and 0.9 ml of modified ASP7 medium was added in the wells of the second and subsequent rows. Eleven μl of the active substance fraction of the target was added individually and mixed well by pipetting in the wells on the first row, followed by adding 100 μl of this mixed solution to the wells on the next row. By repeating this procedures subsequently for 8 to 18 times for each fraction, a ten-fold serial dilution can be prepared in 8 to 18 steps. 100 μl that remained in solution in the wells on the last row was discarded. Here, 100 μl of Monostroma oxyspermum culture medium was diluted subsequently so that the final cell concentration of 10 to 20 cells per 1 ml, was delivered to all wells of 48-MTP to bring the total amount of solution to 1 ml. […] The MEC is used as an index for isolation.
Similar to the case of Example 1, isolated and purified novel chemical substance 1 was serially diluted in 16 steps starting with the final concentration of 1 μg/ml. At this time, the Monostroma oxyspermum cell number was adjusted to be 20 cells per 1 ml of the medium. Fresh pipet tips were used for each step dilution. Three sets of these series were prepared and were cultivated for 3 days under the same condition as Example 1. […] Based on this, the MEC of the novel chemical substance 1 will be as follows.
Similar to Example 5, the MEC of the novel chemical substance 1 and its derivatives are measured and the results are shown below.

[2] = test system: Enteromorpha intestinalis; assay: Culturing experiment of Enteromorpha intestinalis; format: cell-based; details: 1 ng/ml in ASP7 medium, vs control group without addition (FIG. 16)
Description: (§1) Spores obtained from the Ulva pertusa and Enteromorpha intestinalis collected from Miho Shimizu-city, Shizuoka were washed using their phototaxis activity in the ASP7 medium supplemented with the antibiotics, and then were transferred to rectangular petri dishes filled with sterilized covered glasses and aseptized for 5 days. When the free-living cells had attached to the cover glasses and had start growing, each cover glass was placed in each hole of 6-MTP, followed by adding 10 ml of the ASP7 medium not supplemented with antibiotics. For a test group, the novel chemical substance 1 was added to result in 1 ng/ml and for the control group, nothing was added. They were incubtaed for 7 days under the same conditions as in Example 1. […], the cover glasses of the test group and control section were transferred to the culture test tube containing the medium prepared under the same condition to further incubate another 7 days. […] In addition, the ASP7 medium supplemented with antibiotics is an ASP medium, having the following composition and containing 2% antibiotics.

Ulva pertusa = assay: Culturing experiment of Ulva pertusa; format: cell-based; details: 1 ng/ml in ASP7 medium, vs control group without addition (FIG. 15)
Description: as §1

[3] = Stability of the substances; format: physicochemical
[4] = thallus formation of Monostroma oxyspermum, measured similar to Example 5

Solubility in hydrated solvent [1] | Solubility in non-polar solvent ([1]; such as hexane) | Solubility in less-polar organic solvents [1] | Solubility in water [1] | Solubility in DMSO ([1]; DMSO) | Stability ([3]; general statement) | Stability ([3]; substance induced under alkali condition) | Compound | MEC (Monostroma oxyspermum; [4]) | Development and thallus formation [2] | Development and thallus formation (Ulva pertusa) | MEC (Monostroma oxyspermum; cultivated for 3 days, 20 cells per 1 ml, thallus formation at 12-step ten-fold dilution from 1 μg/ml) | MEC after 10 days cultivation (Monostroma oxyspermum; cultivated for 10 days, six-step dilution from 1 μg/ml) | Thallus state (Monostroma oxyspermum; seven-step dilution, final concentration 1×10^−7 μg/ml, cultivated for 10 days (FIG. 13)) | Thallus state (Monostroma oxyspermum; six-step dilution, final concentration 1×10^−6 μg/ml, cultivated for 10 days (FIG. 14))
soluble | hardly soluble | soluble | Poorly soluble |  |  |  | CC1(C)CCC[C@]2(C)C3C[C@H]4c5ccc(CO)nc5CO[C@@]4(CO)O[C@]3(C)CC[C@@H]12 (stereo partly shown) [Me1H1W4] |  |  |  |  |  |  | 
soluble |  | soluble | hardly soluble |  |  |  | CC1(C)CCC[C@]2(C)C3CC(c4ccc(CO)nc4CO)=C(CO)O[C@]3(C)CC[C@@H]12 (stereo partly shown) [Me1H1] | No activity |  |  |  |  |  | 
soluble |  | hardly soluble | hardly soluble | hardly soluble |  |  | COC(=O)C1=C(c2ccc(C(=O)OC)nc2C(=O)OC)CC2[C@@](C)(CC[C@H]3C(C)(C)CCC[C@]23C)O1 (stereo partly shown) [Me1] | 10^−4 μg/ml |  |  |  |  |  | 
 |  |  |  |  | quite stable | relatively stable | CC1(C)CCC[C@]2(C)C3CC(c4ccc(C(=O)O)nc4C(=O)O)=C(C(=O)O)O[C@]3(C)CC[C@@H]12 (stereo partly shown) [Novel Chemical Substance 1] | 10^−12 μg/ml | normal development and thallus formation were observed | normal development and thallus formation were observed | 1 ag/ml | 1 pg/mL | the disrupted thallus is observed | The thallus was maintained without being collapsed

Reference: patent publication US7279314B2, “Chemical substance having morphogenetic and growth-accelerating activities” (Marine Biotechnology Institute Co., Ltd., priority 2002, dated 2007)
